This passage reports IC50 results from patent publication US20250304537A1 (Repare Therapeutics Inc., priority 2022, published 2025).

The term IC50 denotes the concentration that gives 50% inhibition.

Each structure is given as a SMILES string. Like-named read-outs stand apart in the source and are kept apart here.

In test [1] the test system is PKMYT1 (CDK1 pThr14) in FUOV1 cells. Nature of the test: PKMYT1 cell-based activity assay, CDK1 pThr14 AlphaLISA in FUOV1 cells. Particulars: read-out: FUOV-1 CDK1 pThr14 IC50. Summed up:
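FUOV1 cells were treated with PKMYT1 inhibitor for 2 h at 37 °C, then lysed. CDK1 pThr14 was measured by AlphaLISA, pairing an anti-pThr14 antibody with an anti-total CDK1 antibody (5 nM each). Signal read at 680/615 nm and used to derive IC50.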

The target of test [2] is recombinant human Myt1 (full length PKMYT1) (Homo sapiens (Human), UniProt Q99640). Nature of the test: Recombinant human Myt1 kinase assay (ADP-Glo). Particulars: 10 μM ATP. It is filed as biochemical. Summed up: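 Full-length insect-cell-expressed human Myt1 (18 nM final) was preincubated with compound (0.5% DMSO) for 15 min at 22 °C. The reaction ran with 10 μM ATP for 60 min at 30 °C in HEPES buffer with Mg2+/Mn2+ and DTT. ADP formed was read by ADP-Glo luminescence, giving IC50 and % max inhibition.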
recombinant human Myt1 (full length PKMYT1), sequence (Q99640 whole entry): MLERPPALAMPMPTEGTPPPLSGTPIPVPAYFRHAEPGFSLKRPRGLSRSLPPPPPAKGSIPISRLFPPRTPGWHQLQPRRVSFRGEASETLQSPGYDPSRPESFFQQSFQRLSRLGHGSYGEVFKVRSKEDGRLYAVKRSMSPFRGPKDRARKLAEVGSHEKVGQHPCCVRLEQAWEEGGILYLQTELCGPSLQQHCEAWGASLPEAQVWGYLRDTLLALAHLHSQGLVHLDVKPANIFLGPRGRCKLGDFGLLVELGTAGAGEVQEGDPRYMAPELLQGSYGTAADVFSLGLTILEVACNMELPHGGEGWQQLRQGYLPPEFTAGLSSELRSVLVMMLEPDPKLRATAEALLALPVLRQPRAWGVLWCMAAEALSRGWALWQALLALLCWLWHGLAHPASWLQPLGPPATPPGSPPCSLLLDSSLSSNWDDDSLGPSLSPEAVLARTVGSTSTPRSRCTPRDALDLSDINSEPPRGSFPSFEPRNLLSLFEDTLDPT
On the technique in general: In ADP-Glo the light output rises with the ADP produced.

With `Cc1ccc2[nH]ncc2c1-c1cc(-c2cccc(OCc3cnccn3)n2)nc(C(N)=O)c1N` [Compound 250], the IC50 in test [1] (2 h, 2 h incubation) came to 752 nM; in test [2] it was 8 nM.
In the case of `Cc1ccc2[nH]ncc2c1-c1nc(-c2ccccc2NC(=O)C2CCOCC2)nc(C(N)=O)c1N` [Compound 424], the concentration for half-maximal inhibition (IC50) in test [1] (2 h, 2 h compound incubation) is 81 nM; in test [2] it was 4 nM.
As for `Cc1ccc(O)c(C)c1-c1cc(-c2ccnnc2)nc(C(N)=O)c1N` [Compound 52], the IC50 in test [1] (2 h, 2 h incubation) is 45 nM; in test [2], 8 nM.
In the case of `Cc1ccc2[nH]ncc2c1-c1nc(-c2ccc(Cl)cc2NC(=O)C2(C)CC2)nc(C(N)=O)c1N` [Compound 438], the IC50 in test [1] (2 h, 2 h compound incubation) is 17 nM; in test [2], 4 nM.
With `Cc1ccc2[nH]ncc2c1-c1nc(-c2nccs2)nc(C(N)=O)c1N` [Compound 108], the IC50 in test [1] (2 h, 2 h incubation) turned out to be 7400 nM; in test [2], 79 nM.
With `Cc1ccc2[nH]ncc2c1-c1nc(-c2cccnc2Nc2cccnc2C)nc(C(N)=O)c1N` [Compound 623], the half-maximal inhibitory concentration (IC50) in test [1] (2 h, 2 h compound incubation) worked out at 179 nM; in test [2] it was 4 nM.
Turning to `Cc1ccc2[nH]ncc2c1-c1nc(-c2cccnc2N[C@@H]2CCO[C@H](C)C2)nc(C(N)=O)c1N` [Compound 603], the IC50 was 25 nM in test [1] (2 h, 2 h compound incubation) and 4 nM in test [2].
On to `Cc1ccc2[nH]ncc2c1-c1cc(-c2cccc(O[C@H]3CCOC3)n2)nc(C(N)=O)c1N` (atropisomer, axis not shown) [Compound 226], for which the 50% inhibitory concentration (IC50) stood at 367 nM in test [1] (2 h, 2 h incubation) and 4 nM in test [2].
On the same counts, the results for `COC(COc1nccc(-c2cc(-c3c(C)ccc4[nH]ncc34)c(N)c(C(N)=O)n2)n1)C1CC1` (centres unmarked) [Compound 391] are 56 nM and 5 nM.
On the same counts, the results for `CNCCOc1nccc(-c2cc(-c3c(C)ccc4[nH]ncc34)c(N)c(C(N)=O)n2)n1` [Compound 210] are 335 nM and 10 nM.
Regarding `COCC(COC)Oc1nccc(-c2cc(-c3c(C)ccc4[nH]ncc34)c(N)c(C(N)=O)n2)n1` [Compound 207], the IC50 in test [1] (2 h, 2 h incubation) was determined as 144 nM; in test [2], 9 nM.
`Cc1ccc2[nH]ncc2c1-c1nc(-c2cc(F)ccc2NS(=O)(=O)C2(C)CC2)nc(C(N)=O)c1N` [Compound 482]: the IC50 in test [1] (2 h, 2 h compound incubation) is 114 nM; in test [2], 5 nM.
In the case of `Cc1ccc2[nH]ncc2c1-c1cc(-c2ccnnc2)nc(C(N)=O)c1N` [Compound 95], the 50% inhibitory concentration (IC50) in test [1] (2 h, 2 h incubation) came out at 1700 nM; in test [2], 16 nM.
As to `Cc1ccc2[nH]ncc2c1-c1nc(-c2ccc(F)cc2Nc2ncccc2C#N)nc(C(N)=O)c1N` [Compound 613], the IC50 worked out at 6 nM in test [1] (2 h, 2 h compound incubation) and 4 nM in test [2].
On the same counts, the results for `Cc1ccc2[nH]ncc2c1-c1nc(-c2ccccc2NC(=O)[C@]2(C)CCCN2)nc(C(N)=O)c1N` [Compound 422] are 373 nM and 19 nM.
For `Cc1ccc2[nH]ncc2c1-c1cc(-c2ccncn2)nc(C(N)=O)c1N` [Compound 105], the IC50 in test [1] (2 h, 2 h incubation) came out at 551 nM; in test [2], 12 nM.
In the case of `Cc1ccc2[nH]ncc2c1-c1nc(-c2cc(F)ncc2NC2CCOCC2)nc(C(N)=O)c1N` [Compound 843], the half-maximal inhibitory concentration (IC50) in test [1] (2 h, 2 hours with compound) amounted to 22 nM; in test [2], 3 nM.
In the case of `Cc1cc(Nc2cc(F)ccc2-c2nc(C(N)=O)c(N)c(-c3c(C)ccc4[nH]ncc34)n2)cc(C)n1` [Compound 624], the 50% inhibitory concentration (IC50) in test [1] (2 h, 2 h compound incubation) amounted to 489 nM; in test [2], 8 nM.
As to `Cc1cccc(-c2cc(-c3c(C)ccc(O)c3C)c(N)c(C(N)=O)n2)n1` [Compound 91], the IC50 in test [1] (2 h incubation) worked out at 113 nM; in test [2], 3 nM.
As for `Cc1ccc2[nH]ncc2c1-c1cc(-c2ccnc(N[C@H](CO)c3ccccc3)n2)nc(C(N)=O)c1N` (atropisomer, axis not shown) [Compound 371], the IC50 amounted to 2420 nM in test [1] (2 h, 2 h incubation) and 466 nM in test [2].
Take `COc1cc(C)cc(-c2nc(C(N)=O)c(N)c(-c3c(C)ccc4[nH]ncc34)n2)c1` [Compound 143]: the half-maximal inhibitory concentration (IC50) in test [1] (2 h, 2 h incubation) is 1470 nM; in test [2], 23 nM.
With `Cc1ccc2[nH]ncc2c1-c1cc(-c2csc(C(C)(C)O)n2)nc(C(N)=O)c1N` [Compound 225], the half-inhibitory concentration (IC50) in test [2] is 161 nM.
The same measure, in the same setting: to `CNc1cccc(-c2nc(C(N)=O)c(N)c(-c3c(C)ccc4[nH]ncc34)n2)c1` [Compound 140] belongs 48 nM.
Same read-out and setting: to `Cc1ccc2[nH]ncc2c1-c1cc(-c2ccnc(OCCOCCN(C)C)n2)nc(C(N)=O)c1N` [Compound 192] belongs 25 nM; to `Cc1ccc2n[nH]cc2c1-c1cc(-c2cccc(OC[C@@H](N)c3ccccc3)n2)nc(C(N)=O)c1N` [Compound 277], 162 nM; to `Cc1ccc(O)cc1-c1nc(-c2cccc(C(N)=O)c2)nc(C(N)=O)c1N` [Compound 8], 25 nM.
As for `Cc1ccc(O)cc1-c1cc2cccnc2c(C(N)=O)c1N` [Compound 1, 7-amino-6-(5-hydroxy-2-methylphenyl)quinoline-8-carboxamide], the IC50 in test [2] is more than 50000 nM.
For the molecule `Cc1ccc2[nH]ncc2c1-c1cc(-c2ccnc(N3CCC(O)CC3)n2)nc(C(N)=O)c1N` [Compound 359], the concentration for half-maximal inhibition (IC50) in test [2] is 4 nM.
Regarding `Cc1ccc2[nH]ncc2c1-c1cc(-c2ccnc(OCc3nc4ccccc4n3C)n2)nc(C(N)=O)c1N` [Compound 336], the IC50 in test [2] turned out to be 65 nM.
On to `Cc1ccc2[nH]ncc2c1-c1cc(-c2cccc(N3CCOCC3)n2)nc(C(N)=O)c1N` [Compound 217], for which the IC50 in test [2] worked out at 13 nM.
For `Cc1ccc2[nH]ncc2c1-c1nc(-c2cccc(Oc3ccc(F)cc3)c2)nc(C(N)=O)c1N` [Compound 287], in test [2], the IC50 came out at 62 nM.
Consider `Cc1ccc2[nH]ncc2c1-c1nc(-c2ccccc2)nc(C(N)=O)c1Cl` [Compound 75, 5-chloro-6-(5-methyl-1H-indazol-4-yl)-2-phenylpyrimidine-4-carboxamide], for which the IC50 in test [2] is more than 2000 nM.
For `CCCCc1cc(-c2c(C)ccc3[nH]ncc23)c(N)c(C(N)=O)n1` [Compound 216, 3-amino-6-butyl-4-(5-methyl-1H-indazol-4-yl)picolinamide], in test [2], the IC50 amounted to 1510 nM.
On to `Cc1ccc2[nH]ncc2c1-c1nc(-c2cccc(CNc3ncc(C(F)(F)F)cn3)c2)nc(C(N)=O)c1N` [Compound 296], for which the concentration for half-maximal inhibition (IC50) in test [2] is 213 nM.
As for `Cc1ccc2[nH]ncc2c1-c1cc(-c2ccnc(OCCc3ccncc3)n2)nc(C(N)=O)c1N` [Compound 263], the IC50 in test [2] was 19 nM.
For `Cc1ccc(-c2nc(C(N)=O)c(N)c(-c3cc(O)ccc3C)n2)cc1` [Compound 20], the IC50 in test [2] worked out at 105 nM.
Turning to `Cc1ccc2[nH]ncc2c1-c1nc(-c2cccc(CO)c2)nc(C(N)=O)c1N` [Compound 305], in test [2], the IC50 was found to be 81 nM.
Consider `Cc1ccc(O)cc1-c1nc(-c2ccn(C)n2)nc(C(N)=O)c1N` [Compound 35], for which the 50% inhibitory concentration (IC50) in test [2] was determined as 167 nM.
As to `Cc1csc(-c2nc(C(N)=O)c(N)c(-c3c(C)ccc4[nH]ncc34)n2)c1` [Compound 148], the 50% inhibitory concentration (IC50) in test [2] came out at 69 nM.
Regarding `Cc1ccc2[nH]ncc2c1-c1cc(-c2ccnc(OCCN3CCCC3)n2)nc(C(N)=O)c1N` (atropisomer, axis not shown) [Compound 233], the 50% inhibitory concentration (IC50) in test [2] worked out at 859 nM.
Take `Cc1cc(-c2nc(C(N)=O)c(N)c(-c3cc(O)ccc3C)n2)cc(C)n1` [Compound 11]: the half-maximal inhibitory concentration (IC50) in test [2] came out at 54 nM.
Still for that read-out and setting: to `Cc1ccc2[nH]ncc2c1-c1cc(-c2ccc(=O)[nH]c2)nc(C(N)=O)c1N` [Compound 178] belongs 68 nM.
For `Cc1ccc2[nH]ncc2c1-c1cc(-c2csc(C3(O)COC3)n2)nc(C(N)=O)c1N` [Compound 223], the IC50 in test [2] worked out at 61 nM.
Take `Cc1ccc2[nH]ncc2c1-c1nc(-c2ccc3cn[nH]c3c2)nc(C(N)=O)c1N` [Compound 129]: in test [2], the IC50 was 23 nM.
Regarding `CC(=O)c1ccc(-c2nc(C(N)=O)c(N)c(-c3c(C)ccc4[nH]ncc34)n2)cc1` [Compound 128], the IC50 in test [2] worked out at 57 nM.
Same read-out and setting: to `COCCOc1cccc(-c2nc(C(N)=O)c(N)c(-c3c(C)ccc4[nH]ncc34)n2)c1` [Compound 286] belongs 41 nM; to `Cc1ccc2[nH]ncc2c1-c1cc(-c2cccc(OCC(N)C(F)(F)F)n2)nc(C(N)=O)c1N` (centres unmarked) [Compound 355], 7 nM; to `Cc1ccc2[nH]ncc2c1-c1nc(-c2cccc(CNc3ncccn3)c2)nc(C(N)=O)c1N` [Compound 295], 27 nM.
Consider `Cc1ccc2[nH]ncc2c1-c1cc(-c2cccc(OC[C@H]3CCCO3)n2)nc(C(N)=O)c1N` [Compound 356], for which the IC50 in test [2] worked out at 9 nM.
In the case of `Cc1ccc2[nH]ncc2c1-c1nc(-c2ccc(OC3CCOCC3)c(C#N)c2)nc(C(N)=O)c1N` [Compound 118], in test [2], the IC50 worked out at 309 nM.
Turning to `Cc1ccc2[nH]ncc2c1-c1cc(-c2ccnc(NCC3(O)CC3)n2)nc(C(N)=O)c1N` [Compound 341], the IC50 in test [2] came to 16 nM.
Same read-out and setting: to `Cc1ccc2[nH]ncc2c1-c1nc(-c2ccnc(N3CCOCC3)c2)nc(C(N)=O)c1N` [Compound 155] belongs 15 nM.
On to `Cc1ccc2[nH]ncc2c1-c1cc(-c2ccnc(O[C@H](C)c3ncccn3)n2)nc(C(N)=O)c1N` (atropisomer, axis not shown) [Compound 358], for which, in test [2], the IC50 came out at 69 nM.
Still for that read-out and setting: to `Cc1ccc2[nH]ncc2c1-c1nc(-c2ccc(N3CCOCC3)cc2)nc(C(N)=O)c1N` [Compound 103] belongs 94 nM; to `COCc1cccc(-c2nc(C(N)=O)c(N)c(-c3c(C)ccc4[nH]ncc34)n2)c1` [Compound 292], 18 nM; to `Cc1ccc2[nH]ncc2c1-c1cc(-c2ccnc(N3Cc4ccccc4C[C@H]3CO)n2)nc(C(N)=O)c1N` (atropisomer, axis not shown) [Compound 392], 461 nM.
